This is an account of results in patent US12653859B2, “Peptides and medical uses thereof” (Anbition S.R.L., priority 2018, dated 2026).

A short description of data set [1]: Serum protease stability in 10% fetal calf serum (RP-HPLC). It counts as in vitro ADME. To be noted: 10% FCS. As for the experimental part:
The stability of the peptide iVR1-Cys in 10% serum (fetal calf serum, FCS) in a 50 mM phosphate buffer solution, pH 7.3, at 168 h was determined as described by Ponticelli et al., relying on a method based on RP-HPLC chromatography, described therein [Ponticelli et al., J Biol Chem. 2008 Dec. 5; 283 (49): 34250-9].
The reference curve was constructed by dissolving the compound in DMSO at increasing concentrations of between 0.1 μmol/L and 1000 μmol/L in order to have complete dissolution. The concentration of the molecule left in contact with 10% FCS at the initial concentration of 10 μmol/L was then determined by drawing 3 aliquots at time t=0, then every hour in the first 12 hours and then at 24, 72, 120, and 168 h. The aliquots were diluted 1:1 with acetic acid 0.1 M in order to detach any peptide bound to the albumin, centrifuged to remove any precipitated materials and analyzed by RP-HPLC under the conditions reported in Ponticelli et al. The amount of residual peptide detected in the aliquots, expressed as a percentage relative to the initial amount, was plotted as a function of time. The results are shown in Table VII as the mean of the three determinations±the standard deviation (SD).

Data set [2] has as its target T1, VEGF-A/VEGFR-1 interaction (Homo sapiens, UniProt P17948).
T1 construct: the form consisting of the seven extracellular domains of the receptor fused to the Fc domain of human IgG; purchased R&D Systems 321-FL (receptor); 293-VE (VEGF-A)
Description: ELISA competition assay of VEGF-A binding to VEGFR-1. Particulars: tetrameric peptides of formula (II) with Y2 different from D-cysteine; read-out: IC50 of inhibition of the interaction VEGF-A/VEGFR-1. The method, then:
The binding reaction was conducted for one hour at 37° C., followed by one hour at room temperature. At the end of the binding and/or competition step, anti-human-PIGF biotinylated polyclonal antibodies (R&D Systems, cat No. BAF264) or anti-human-VEGF-A (R&D Systems, cat No. BAF293) were added to the wells at the concentration of 300 ng/ml in PBET. After one hour of incubation at 37° C. followed by one hour at room temperature, an HRP-conjugated avidin-streptavidin system (Vectastain elite ABC kit) and a substrate for HRP (o-phenylenediamine-Sigma, cat No. P1526) were added to the wells. Quantization was performed by determining the absorbance at 490 nm. Any inhibitory activity of the peptides was expressed in terms of % of residual binding, comparing the data obtained for the binding of PIGF or VEGF-A to the receptors in the presence of the tetrameric peptides with those in the absence of the same. iVR1 represented the positive control of the inhibition of the PIGF/VEGFR-1 or VEGF-A/VEGFR-1 interaction.
(In general: In an ELISA, binding on a coated surface is turned into a signal by an enzyme label.)

T1 sequence (P17948 27-758 limits assumed): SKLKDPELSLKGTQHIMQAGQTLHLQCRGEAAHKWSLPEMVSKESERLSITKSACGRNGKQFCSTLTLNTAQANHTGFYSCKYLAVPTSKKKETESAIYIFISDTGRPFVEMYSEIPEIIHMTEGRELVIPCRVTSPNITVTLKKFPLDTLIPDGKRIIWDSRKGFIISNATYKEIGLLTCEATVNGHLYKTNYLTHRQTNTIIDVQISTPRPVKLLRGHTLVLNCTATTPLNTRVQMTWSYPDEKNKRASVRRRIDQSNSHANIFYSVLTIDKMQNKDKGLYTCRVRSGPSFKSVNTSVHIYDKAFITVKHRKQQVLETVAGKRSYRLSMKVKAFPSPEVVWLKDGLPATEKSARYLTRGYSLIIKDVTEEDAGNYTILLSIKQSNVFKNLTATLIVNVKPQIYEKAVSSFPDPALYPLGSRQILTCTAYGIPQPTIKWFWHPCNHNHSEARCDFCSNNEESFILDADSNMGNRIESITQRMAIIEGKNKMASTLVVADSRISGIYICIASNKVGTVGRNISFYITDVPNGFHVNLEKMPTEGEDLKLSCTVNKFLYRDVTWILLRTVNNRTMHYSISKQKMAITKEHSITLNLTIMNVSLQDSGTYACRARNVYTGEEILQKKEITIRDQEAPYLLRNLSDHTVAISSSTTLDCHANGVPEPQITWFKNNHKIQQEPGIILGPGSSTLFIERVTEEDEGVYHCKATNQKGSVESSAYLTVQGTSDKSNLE

In the case of `NC(=O)[C@@H](CS)NC(=O)C(CCCCNC(=O)C(CCCCNC(=O)[C@H](CC1CCCCC1)NC(=O)C(CSCc1ccccc1)NC(=O)[C@H](N)CCC(=O)O)NC(=O)[C@H](CC1CCCCC1)NC(=O)C(CSCc1ccccc1)NC(=O)[C@H](N)CCC(=O)O)NC(=O)C(CCCCNC(=O)[C@H](CC1CCCCC1)NC(=O)C(CSCc1ccccc1)NC(=O)[C@H](N)CCC(=O)O)NC(=O)[C@H](CC1CCCCC1)NC(=O)C(CSCc1ccccc1)NC(=O)[C@H](N)CCC(=O)O` (some centres unmarked) [iVR1-Cys], the “% residual peptide ± SD” value in data set [1] (0 h, 50 mM phosphate buffer pH 7.3, initial 10 μmol/L) is 101 ± 4%. Further, the remaining at 1 h, 10 μmol/L in data set [1] (cattle (fetal calf), 10% fetal calf serum in phosphate buffer, 1 h, pH 7.3, read-out: % residual peptide ± SD) is 100 ± 11%. The remaining at 2 h, 10 μmol/L in data set [1] (cattle (fetal calf), 10% fetal calf serum in phosphate buffer, 2 h, pH 7.3, read-out: % residual peptide ± SD) amounted to 99 ± 7%. For the same compound, the remaining at 3 h, 10 μmol/L in data set [1] (cattle (fetal calf), 10% fetal calf serum in phosphate buffer, 3 h, pH 7.3, read-out: % residual peptide ± SD) amounted to 98 ± 5%. In addition, the remaining at 4 h, 10 μmol/L in data set [1] (cattle (fetal calf), 10% fetal calf serum in phosphate buffer, 4 h, pH 7.3, read-out: % residual peptide ± SD) is 97 ± 4%. Further, the remaining at 5 h, 10 μmol/L in data set [1] (cattle (fetal calf), 10% fetal calf serum in phosphate buffer, 5 h, pH 7.3, read-out: % residual peptide ± SD) was found to be 96 ± 5%. In data set [1] (cattle (fetal calf), 10% fetal calf serum in phosphate buffer, 6 h, pH 7.3, read-out: % residual peptide ± SD), the remaining at 6 h, 10 μmol/L was 99 ± 6%. Further, the remaining at 7 h, 10 μmol/L in data set [1] (cattle (fetal calf), 10% fetal calf serum in phosphate buffer, 7 h, pH 7.3, read-out: % residual peptide ± SD) came out at 95 ± 8%. The remaining at 8 h, 10 μmol/L in data set [1] (cattle (fetal calf), 10% fetal calf serum in phosphate buffer, 8 h, pH 7.3, read-out: % residual peptide ± SD) was 96 ± 5%. Moreover, the remaining at 9 h, 10 μmol/L in data set [1] (cattle (fetal calf), 10% fetal calf serum in phosphate buffer, 9 h, pH 7.3, read-out: % residual peptide ± SD) came to 95 ± 6%. Moreover, in data set [1] (cattle (fetal calf), 10% fetal calf serum in phosphate buffer, 10 h, pH 7.3, read-out: % residual peptide ± SD), the remaining at 10 h, 10 μmol/L was found to be 94 ± 10%. In data set [1] (cattle (fetal calf), 10% fetal calf serum in phosphate buffer, 11 h, pH 7.3, read-out: % residual peptide ± SD), the remaining at 11 h, 10 μmol/L came to 94 ± 8%. For the same compound, in data set [1] (cattle (fetal calf), 10% fetal calf serum in phosphate buffer, 12 h, pH 7.3, read-out: % residual peptide ± SD), the remaining at 12 h, 10 μmol/L was 93 ± 4%. Besides, the remaining at 24 h, 10 μmol/L in data set [1] (cattle (fetal calf), 10% fetal calf serum in phosphate buffer, 24 h, pH 7.3, read-out: % residual peptide ± SD) worked out at 93 ± 6%. The remaining at 72 h, 10 μmol/L in data set [1] (cattle (fetal calf), 10% fetal calf serum in phosphate buffer, 72 h, pH 7.3, read-out: % residual peptide ± SD) was found to be 92 ± 7%. Moreover, in data set [1] (cattle (fetal calf), 10% fetal calf serum in phosphate buffer, 120 h, pH 7.3, read-out: % residual peptide ± SD), the remaining at 120 h, 10 μmol/L is 91 ± 5%. The remaining at 168 h, 10 μmol/L in data set [1] (cattle (fetal calf), 10% fetal calf serum in phosphate buffer, 168 h, pH 7.3, read-out: % residual peptide ± SD) amounted to 92 ± 8%.
Consider D-serine, for which the IC50 in data set [2] turned out to be 2430 ± 3000 nM.
The same measure, in the same setting: then L-cysteine, with 2030 ± 200 nM; and L-methionine sulfone, with 4620 ± 1400 nM.
